# Experimental data: patent US8518903B2, “Use of toll-like receptor-9 agonists” (University of Pittsburgh—of the Commonwealth System of …, priority 2007, dated 2013)
# Tests used:
# [1] = test system: murine model of endotoxemia; experiment: Enterocyte apoptosis (caspase 3) in murine model of endotoxemia; assay type: in vivo, mouse; details: 5 mg/kg LPS + 1 mg/kg CpG-DNA vs LPS, 3 hours
# Experimental: (A) Control mice (injected with saline). (B) Mice injected with 5 mg/kg of LPS. (C) Mice injected with 5 mg/kg of LPS and 1 mg/kg of CpG. (D-G) Immunohistochemical staining of terminal ileum from newborn mice that were either breast fed (“control”) or induced to develop NEC (“NEC”). Sections were stained for caspase 3 as a marker of apoptosis and enterocyte loss; positive staining is indicated by a small arrowhead. (D) Control injected with saline. (E) NEC injected with saline. (F) Control injected with 1 mg/kg CpG-DNA daily for four days. (G) NEC injected with 1 mg/kg CpG-DNA daily for four days. (H) Bar graph summarizing results, showing percent apoptosis in terminal ileum as depicted in (D)-(G).
# Induction of necrotizing enterocolitis. All mice were housed and cared for at Rangos Research Center, Children's Hospital of Pittsburgh. All experiments were approved by the Children's Hospital of Pittsburgh Animal Care Committee and the Institutional Review Board of the University of Pittsburgh (protocol 45-06). Swiss-Webster (CfW) and C57/B1-6 mice were obtained from Jackson Laboratories (Jackson Laboratory, Bar Harbor, Me.). Endotoxemia was induced in 2 week old C57/B16 or CpG1 (TLR9-mutant) mice by the intraperitoneal injection of LPS (Escherichia coli 0111:B4 purified by gel-filtration chromatography, >99% pure, 5 mg/kg, Sigma-Aldrich, St. Louis, Mo.). […]
# IEC-6 enterocytes = experiment: Assessment of NFkB activation (nuclear:cytoplasmic ratio of p65) in IEC-6 enterocytes; assay type: cell-based; details: IEC-6 cells, LPS 50 μg/ml, CpG-DNA 1 μM, polymixin B 10 μg/ml, 1 hour
# Experimental: FIG. 21. Nuclear:cytoplasmic ratio of NFκB, indicating the extent of translocation of NFκB into the nucleus, in IEC-6 cells which were either untreated (control); treated with LPS; treated with LPS and CpG; treated with LPS, CpG and polymixin B; treated with CpG; or treated with polymixin B. The concentrations used were LPS at […] CpG-DNA at 1 μM, and polymixin B at 10 μg/ml.
# Assessment of NFkB activation. IEC-6 enterocytes were treated with LPS (50 μg/ml, Sigma-Aldrich, St. Louis, Mo.) and/or CpG-DNA (1 μM) either alone or in combination for 1 hour and immunostained with antibodies against the p65 subunit of NF-κB. Quantification of nuclear translocation was performed as adapted from Ding, et al. J Biol. Chem. 1998 Oct. 30; 273(44):28897-905. […] The average NF-κB p65 intensity of the cytoplasmic area was determined by subtracting the area and integrated intensity of the nuclear ROI from the nuclear+cytoplasmic ROI and dividing the cytoplasmic integrated intensity by the cytoplasmic area. The extent of p65 staining in the nucleus versus the cytoplasm (i.e. the nuclear to cytoplasmic ratio) was calculated for each cell by dividing the nuclear average NF-κB p65 intensity by the cytoplasmic average NF-κB p65 intensity. Nuclear to cytoplasmic ratio was calculated for more than 200 cells per treatment group for more than 4 separate experiments.
substance,measurement,setting,value
5′-TCCATGACGTTCCTGACGTT-3′ [CpG-DNA],apoptosis in enterocytes of terminal ileum (caspase 3),[1],substantially reduced
same,LPS-induced translocation of NFκB into the nucleus (nuclear:cytoplasmic ratio),IEC-6 enterocytes,significantly inhibited translocation
